Tests used:
Format in all cases: cell-based
Details in all cases: Homo sapiens, LPS 100 ng/mL
IL-6 = test: Inhibition of IL-6 in PMA-differentiated, LPS-stimulated THP-1 cells (ELISA of cell supernatant)
Experimental: (§1) (1) Cell culture and inoculation: A stock solution of PMA at 1 mg/mL was diluted with serum-free RP1640 medium to prepare a 100 ng/mL PMA solution. Normal cultured THP-1 cells were centrifuged, resuspended in a complete medium (RP1640 medium containing 10% FBS), and counted. The cell density was adjusted to 2×10^6 cells/mL. An equal volume of 100 ng/mL PMA solution was then added, resulting in a cell density of 1×10^6 cells/mL and a final PMA concentration of 50 ng/mL. 100 μL of the cell suspension was seeded into each well of a 96-well cell culture plate with 1×10^5 cells per well. The 96-well cell culture plate was then incubated at 37° C. in a 5% CO2 atmosphere for 24 hours.
(§2) (2) Drug treatment of cells: On the second day, LPS was added to the complete medium to adjust the final concentration to 100 ng/mL, and the compound was prepared using this LPS-containing medium. The compound was added to the appropriate cell wells according to the prepared concentration gradient. The positive control group (LPS+) was a culture medium solution containing a final concentration of 100 ng/mL LPS and 0.1% DMSO without drugs, while the negative control group (LPS-) was a culture medium solution containing 0.1% DMSO without LPS. The volume in each well was 100 μL.
(§3) (3) Test sample collection: The mixture was centrifuged at 1000 rpm for 5 minutes and the cell supernatant and cell precipitate were collected separately. The cell supernatant was used to detect TNF-α and IL-6, and the cell precipitate was collected for IL-1β detection. After collecting the cell supernatant, the remaining liquid in the wells was discarded and 100 μL of cell lysis solution (20 mM Tris 8.0; 2 mM EDTA; 0.5% Triton X-100) was added to each well for complete lysis.
(§4) (4) Sample detection: The enzyme-linked immunosorbent assay (ELISA) was used to detect the content of each cytokine. The specific steps were performed according to the instructions provided in the corresponding kit manuals. The catalog numbers of kits are as follows: • Human TNF-alpha Quantikine ELISA Kit, Catalog # STA00D • Human IL-1 beta/IL-1F2 Quantikine ELISA Kit, Catalog # SLB50 • Human IL-6 Quantikine ELISA Kit, Catalog # S6050.
(§5) (5) Data analysis: The in vitro inhibitory activity of the compounds was calculated using the following formula: […]

TNF-α = test: Inhibition of TNF-α in PMA-differentiated, LPS-stimulated THP-1 cells (ELISA of cell supernatant)
Experimental: as §1, §2, §3, §4, §5

IL-1β = test: Inhibition of IL-1β in PMA-differentiated, LPS-stimulated THP-1 cells (ELISA of cell lysate)
Experimental: as §1, §2, §3, §4, §5

Compound	IC50 (IL-6; THP-1, Table 7, PMA 50 ng/mL)	IC50 (TNF-α; THP-1, Table 7, PMA 50 ng/mL)	IC50 (IL-1β; THP-1, Table 7, PMA 50 ng/mL)	IC50 (IL-6; THP-1, Table 8, PMA 50 ng/mL)	IC50 (TNF-α; THP-1, Table 8, PMA 50 ng/mL)	IC50 (IL-1β; THP-1, Table 8, PMA 50 ng/mL)
COC(=O)c1ccc(CN(CCO)CCCC(C)Nc2ccnc3cc(F)ccc23)cc1 (stereo not drawn) [Example 42]	2.84 µM	6.56 µM	3.31 µM	–	–	–
CC(CCCN(CCO)Cc1ccc(OC(F)(F)F)cc1)Nc1ccnc2cc(F)ccc12 (stereo not drawn) [Example 43]	1.57 µM	4.01 µM	33.8 µM	–	–	–
COC(=O)c1ccc(CN(CCO)CCCCCNc2ncnc3cc(Cl)ccc23)cc1 [Example 44, Methyl 4-(((5-((7-chloroquinazolin-4-yl)amino)pentyl)(2-hydroxyethyl)amino)methyl)benzoate]	0.77 µM	19.9 µM	21.1 µM	–	–	–
OCCN(CCCCCNc1ncnc2cc(Cl)ccc12)Cc1ccc(OC(F)(F)F)cc1 [Example 45, 2-((5-((7-Chloroquinazolin-4-yl)amino)pentyl)(4-(trifluoromethoxy)benzyl)amino)ethan-1-ol]	1.09 µM	12.6 µM	10.3 µM	–	–	–
OCCN(CCCCNc1ncnc2cc(Cl)ccc12)Cc1ncco1 [Example 47, 2-((4-((7-Chloroquinazolin-4-yl)amino)butyl)(oxazol-2-ylmethyl)amino)ethan-1-ol]	1.94 µM	58.1 µM	1 µM	–	–	–
OCCN(CCCCCNc1ncnc2cc(F)ccc12)Cc1ncco1 [Example 48, 2-((5-((7-Fluoroquinazolin-4-yl)amino)pentyl)(oxazol-2-ylmethyl)amino)ethan-1-ol]	0.91 µM	14.8 µM	49.6 µM	–	–	–
CS(=O)(=O)c1ccc(CN(CCO)CCCCCNc2ncnc3cc(F)ccc23)cc1 [Example 49]	1.15 µM	18.5 µM	48.2 µM	–	–	–
O=C1NC2(CCC2)C(=O)N1CCCCCNc1ncnc2cc(F)ccc12 [Example 51, 7-(5-((7-Fluoroquinazolin-4-yl)amino)pentyl)-5,7-diazaspiro[3.4]octane-6,8-dione]	–	–	–	0.04 µM	3.96 µM	3.52 µM
O=C1NC2(CCCC2)C(=O)N1CCCCCNc1ncnc2cc(F)ccc12 [Example 52, 3-(5-((7-Fluoroquinazolin-4-yl)amino)pentyl)-1,3-diazaspiro[4.4]nonane-2,4-dione]	–	–	–	0.28 µM	28.3 µM	21 µM
CN1CC(=O)N(CCCCCNc2ncnc3cc(F)ccc23)C1=O [Example 54, 3-(5-((7-Fluoroquinazolin-4-yl)amino)pentyl)-1-methylimidazoline-2,4-dione]	–	–	–	1.05 µM	114 µM	154 µM
O=C1NC2(CC2)C(=O)N1CCCCCNc1ncnc2cc(F)ccc12 [Example 55, 6-(5-((7-Fluoroquinazolin-4-yl)amino)pentyl)-4,6-diazaspiro[2.4]heptane-5,7-dione]	–	–	–	0.34 µM	34.9 µM	63.8 µM
O=C1CNC(=O)N1CCCCNc1ncnc2cc(F)ccc12 [Example 56, 3-(4-((7-Fluoroquinazolin-4-yl)amino)butyl)imidazoline-2,4-dione]	–	–	–	18.8 µM	159 µM	16.3 µM
CC1(C)NC(=O)N(CCCCNc2ncnc3cc(F)ccc23)C1=O [Example 57, 3-(4-((7-Fluoroquinazolin-4-yl)amino)butyl)-5,5-dimethylimidazoline-2,4-dione]	–	–	–	3.22 µM	29.4 µM	53.9 µM
CN1CC(=O)N(CCCCNc2ncnc3cc(F)ccc23)C1=O [Example 58, 3-(4-((7-Fluoroquinazolin-4-yl)amino)butyl)-1-methylimidazoline-2,4-dione]	–	–	–	2.58 µM	90.7 µM	86.5 µM
O=C1NC2(CCCC2)C(=O)N1CCCCNc1ncnc2cc(F)ccc12 [Example 59, 3-(4-((7-Fluoroquinazolin-4-yl)amino)butyl)-1,3-diazaspiro[4.4]nonane-2,4-dione]	–	–	–	0.37 µM	12.1 µM	80.5 µM
O=C1NC2(CCCC2)C(=O)N1CCCCNc1ncnc2cc(Cl)ccc12 [Example 62, 3-(4-((7-Chloroquinazolin-4-yl)amino)butyl)-1,3-diazaspiro[4.4]nonane-2,4-dione]	–	–	–	0.75 µM	7.18 µM	51.6 µM

Source: patent publication US20240262793A1, “QUINAZOLINE COMPOUND, AND PREPARATION METHOD THEREFOR AND APPLICATION THEREOF” (SHANGHAI PHARMACEUTICALS HOLDING CO., LTD., priority 2021, published 2024)
